Reference: patent publication US11000033B2, “Ketone or oxime compound, and herbicide” (NISSAN CHEMICAL CORPORATION, priority 2014, dated 2021)

What was measured:
Assay type in all cases: in vivo
[1] = test system: Scirpus juncoides; test: Test Example 1: herbicidal activity, application before weed generation in submerged conditions (symbol B); conditions: application herbicide amount 320 g/ha
Procedure, shortened: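 Application before weed emergence: an aqueous dilution of the emulsion formulation was poured onto the surface of 4 cm-deep floodwater on the day of sowing. Effect was judged after 3 weeks (greenhouse, 25–30 °C).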

[2] = test system: Leptochloa chinensis; test: Test Example 3: herbicidal effect by foliage application, Wagner pot (symbol D); conditions: application herbicide amount 320 g/ha
Procedure, shortened: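 Scoring took place 3 weeks after application, using fixed criteria. Plants had been raised from seed for 14 days at 25 to 30 °C in submerged alluvial soil before a diluted emulsion of the test compound was sprayed uniformly on the leaves.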

[3] = test system: Setaria viridis; test: Test Example 4: herbicidal effect by soil treatment (symbol G); conditions: application herbicide amount 320 g/ha
Procedure, shortened: (§1)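 Seeds were sown in sterilized diluvial soil, covered with about 1.5 cm of soil, and the soil surface was sprayed with a water-diluted emulsion of the compound at a predetermined rate. Plants grew in a greenhouse at 25° C. to 30° C.; effects were scored visually 3 weeks after application.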

[4] = test system: Avena fatua; test: Test Example 4: herbicidal effect by soil treatment (symbol I); conditions: application herbicide amount 320 g/ha
Procedure, shortened: as §1

[5] = test system: Apera spica-venti; test: Test Example 4: herbicidal effect by soil treatment (symbol L); conditions: application herbicide amount 320 g/ha
Procedure, shortened: as §1

[6] = test system: Amaranthus retroflexus; test: Test Example 4: herbicidal effect by soil treatment (symbol N); conditions: application herbicide amount 320 g/ha
Procedure, shortened: as §1

[7] = test system: Galium spurium; test: Test Example 4: herbicidal effect by soil treatment (symbol Q); conditions: application herbicide amount 320 g/ha
Procedure, shortened: as §1

[8] = test system: soybean; test: Test Example 4: effect on crop by soil treatment (symbol d); conditions: application herbicide amount 320 g/ha
Procedure, shortened: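 Crop seed is sown in spots together with several weed species in a box of sterilized diluvial soil. It is covered by about 1.5 cm of soil and kept in a greenhouse held between 25° C. and 30° C.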

[9] = test system: Digitaria ciliaris; test: Test Example 5: herbicidal effect by foliage application, plastic box (symbol F); conditions: 320 g/ha, 3 weeks after application
Procedure, shortened: (§2)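 Herbicide, formulated as an emulsion and diluted in water, is sprayed onto the aerial parts of 14-day seedlings. These were grown at 25° C. to 30° C. in sterilized diluvial soil; effects are graded after 3 weeks.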

[10] = test system: Echinochloa crus-galli var. crus-galli; test: Test Example 5: herbicidal effect by foliage application, plastic box (symbol H); conditions: 320 g/ha, 3 weeks after application
Procedure, shortened: as §2

[11] = test system: Avena fatua; test: Test Example 5: herbicidal effect by foliage application, plastic box (symbol I); conditions: 320 g/ha, 3 weeks after application
Procedure, shortened: as §2

[12] = test system: Apera spica-venti; test: Test Example 5: herbicidal effect by foliage application, plastic box (symbol L); conditions: 320 g/ha, 3 weeks after application
Procedure, shortened: as §2

[13] = test system: Abutilon theophrasti; test: Test Example 5: herbicidal effect by foliage application, plastic box (symbol M); conditions: 320 g/ha, 3 weeks after application
Procedure, shortened: as §2

[14] = test system: Chenopodium album; test: Test Example 5: herbicidal effect by foliage application, plastic box (symbol O); conditions: 320 g/ha, 3 weeks after application
Procedure, shortened: as §2

[15] = test system: Stellaria media; test: Test Example 5: herbicidal effect by foliage application, plastic box (symbol P); conditions: 320 g/ha, 3 weeks after application
Procedure, shortened: as §2

[16] = test system: Galium spurium; test: Test Example 5: herbicidal effect by foliage application, plastic box (symbol Q); conditions: 320 g/ha, 3 weeks after application
Procedure, shortened: as §2

[17] = test system: Veronica persica; test: Test Example 5: herbicidal effect by foliage application, plastic box (symbol R); conditions: 320 g/ha, 3 weeks after application
Procedure, shortened: as §2

[18] = test system: beet; test: Test Example 5: effect on crop by foliage application, plastic box (symbol f); conditions: 320 g/ha, 3 weeks after application
Procedure, shortened: (§3)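 Greenhouse culture at 25° C. to 30° C. followed spot-like sowing into sterilized diluvial soil, with seed covered by roughly 1.5 cm of soil.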

[19] = test system: rapeseed; test: Test Example 5: effect on crop by foliage application, plastic box (symbol g); conditions: 320 g/ha, 3 weeks after application
Procedure, shortened: as §3

Structure (SMILES)	Herbicidal effect grade, B: Scirpus juncoides [1]	herbicidal effect on D (Leptochloa chinensis), grade 0-5 [2]	F: Digitaria ciliaris, herbicidal effect (criteria of Test Example 1) [9]	H: Echinochloa crus-galli var. crus-galli, herbicidal effect (criteria of Test Example 1) [10]	I: Avena fatua, herbicidal effect (criteria of Test Example 1) [11]	L: Apera spica-venti, herbicidal effect (criteria of Test Example 1) [12]	M: Abutilon theophrasti, herbicidal effect (criteria of Test Example 1) [13]	O: Chenopodium album, herbicidal effect (criteria of Test Example 1) [14]	P: Stellaria media, herbicidal effect (criteria of Test Example 1) [15]	Q: Galium spurium, herbicidal effect (criteria of Test Example 1) [16]	R: Veronica persica, herbicidal effect (criteria of Test Example 1) [17]	f: beet, effect on crop (criteria of Test Example 1) [18]	g: rapeseed, effect on crop (criteria of Test Example 1) [19]	G: Setaria viridis, herbicidal effect grade [3]	I: Avena fatua, herbicidal effect grade [4]	L: Apera spica-venti, herbicidal effect grade [5]	N: Amaranthus retroflexus, herbicidal effect grade [6]	Q: Galium spurium, herbicidal effect grade [7]	d: soybean, effect on crop grade [8]	also measured
CON=C(C)CC1CC(O)=C(c2c(OC)cc(C)cc2OC)C1=O (stereo not shown) [6-103]	0 (Herbicidal ratio of 5% or lower (almost no effect))	5 (Herbicidal ratio of 90% or more (almost completely withered))	5 (Herbicidal ratio of 90% or more (almost completely withered))	5 (Herbicidal ratio of 90% or more (almost completely withered))	5 (Herbicidal ratio of 90% or more (almost completely withered))	5 (Herbicidal ratio of 90% or more (almost completely withered))	2 (Herbicidal ratio of 20% or higher and lower than 40%)	0 (Herbicidal ratio of 5% or lower (almost no effect))	1 (Herbicidal ratio of 5% or higher and lower than 20%)	0 (Herbicidal ratio of 5% or lower (almost no effect))	2 (Herbicidal ratio of 20% or higher and lower than 40%)	0 (Herbicidal ratio of 5% or lower (almost no effect))	4 (Herbicidal ratio of 70% or higher and lower than 90%)	–	–	–	–	–	–	Herbicidal effect grade, G: Setaria viridis [3]: 5 (Herbicidal ratio of 90% or more (almost completely withered)); Herbicidal effect grade, I: Avena fatua [4]: 5 (Herbicidal ratio of 90% or more (almost completely withered)); Herbicidal effect grade, L: Apera spica-venti [5]: 5 (Herbicidal ratio of 90% or more (almost completely withered)); Herbicidal effect grade, N: Amaranthus retroflexus [6]: 0 (Herbicidal ratio of 5% or lower (almost no effect)); Herbicidal effect grade, Q: Galium spurium [7]: 0 (Herbicidal ratio of 5% or lower (almost no effect)); Effect on crop grade, d: soybean [8]: 0 (Herbicidal ratio of 5% or lower (almost no effect))
CON=C(C)CC1CC(O)=C(c2c(C)cc(-n3cccn3)cc2C)C1=O (stereo not shown) [6-073]	1 (Herbicidal ratio of 5% or higher and lower than 20%)	5 (Herbicidal ratio of 90% or more (almost completely withered))	5 (Herbicidal ratio of 90% or more (almost completely withered))	5 (Herbicidal ratio of 90% or more (almost completely withered))	5 (Herbicidal ratio of 90% or more (almost completely withered))	3 (Herbicidal ratio of 40% or higher and lower than 70%)	0 (Herbicidal ratio of 5% or lower (almost no effect))	3 (Herbicidal ratio of 40% or higher and lower than 70%)	2 (Herbicidal ratio of 20% or higher and lower than 40%)	3 (Herbicidal ratio of 40% or higher and lower than 70%)	3 (Herbicidal ratio of 40% or higher and lower than 70%)	0 (Herbicidal ratio of 5% or lower (almost no effect))	4 (Herbicidal ratio of 70% or higher and lower than 90%)	5 (Herbicidal ratio of 90% or more (almost completely withered))	3 (Herbicidal ratio of 40% or higher and lower than 70%)	0 (Herbicidal ratio of 5% or lower (almost no effect))	0 (Herbicidal ratio of 5% or lower (almost no effect))	0 (Herbicidal ratio of 5% or lower (almost no effect))	0 (Herbicidal ratio of 5% or lower (almost no effect))	–
CON=C(C)CC1CC(O)=C(c2c(C)cc(-c3ncccn3)cc2C)C1=O (mixture of isomers) [6-057]	3 (Herbicidal ratio of 40% or higher and lower than 70%)	5 (Herbicidal ratio of 90% or more (almost completely withered))	5 (Herbicidal ratio of 90% or more (almost completely withered))	5 (Herbicidal ratio of 90% or more (almost completely withered))	5 (Herbicidal ratio of 90% or more (almost completely withered))	5 (Herbicidal ratio of 90% or more (almost completely withered))	1 (Herbicidal ratio of 5% or higher and lower than 20%)	4 (Herbicidal ratio of 70% or higher and lower than 90%)	4 (Herbicidal ratio of 70% or higher and lower than 90%)	3 (Herbicidal ratio of 40% or higher and lower than 70%)	4 (Herbicidal ratio of 70% or higher and lower than 90%)	0 (Herbicidal ratio of 5% or lower (almost no effect))	5 (Herbicidal ratio of 90% or more (almost completely withered))	5 (Herbicidal ratio of 90% or more (almost completely withered))	0 (Herbicidal ratio of 5% or lower (almost no effect))	4 (Herbicidal ratio of 70% or higher and lower than 90%)	0 (Herbicidal ratio of 5% or lower (almost no effect))	0 (Herbicidal ratio of 5% or lower (almost no effect))	0 (Herbicidal ratio of 5% or lower (almost no effect))	–
CON=C(C)CC1CC(OC(=O)N2CCOCC2)=C(c2c(C)cc(-c3ccc(F)cc3)cc2C)C1=O (mixture of isomers) [6-059]	5 (Herbicidal ratio of 90% or more (almost completely withered))	5 (Herbicidal ratio of 90% or more (almost completely withered))	5 (Herbicidal ratio of 90% or more (almost completely withered))	5 (Herbicidal ratio of 90% or more (almost completely withered))	5 (Herbicidal ratio of 90% or more (almost completely withered))	5 (Herbicidal ratio of 90% or more (almost completely withered))	5 (Herbicidal ratio of 90% or more (almost completely withered))	5 (Herbicidal ratio of 90% or more (almost completely withered))	4 (Herbicidal ratio of 70% or higher and lower than 90%)	4 (Herbicidal ratio of 70% or higher and lower than 90%)	5 (Herbicidal ratio of 90% or more (almost completely withered))	0 (Herbicidal ratio of 5% or lower (almost no effect))	5 (Herbicidal ratio of 90% or more (almost completely withered))	5 (Herbicidal ratio of 90% or more (almost completely withered))	3 (Herbicidal ratio of 40% or higher and lower than 70%)	5 (Herbicidal ratio of 90% or more (almost completely withered))	0 (Herbicidal ratio of 5% or lower (almost no effect))	3 (Herbicidal ratio of 40% or higher and lower than 70%)	0 (Herbicidal ratio of 5% or lower (almost no effect))	–
